The structures appear in SMILES notation.

The target of this assay is Tyrosine-protein kinase Lck (Homo sapiens, UniProt P06239). Kind of assay: Inhibition of protein-tyrosine kinase p56lck.
Tyrosine-protein kinase Lck, sequence (P06239 whole entry): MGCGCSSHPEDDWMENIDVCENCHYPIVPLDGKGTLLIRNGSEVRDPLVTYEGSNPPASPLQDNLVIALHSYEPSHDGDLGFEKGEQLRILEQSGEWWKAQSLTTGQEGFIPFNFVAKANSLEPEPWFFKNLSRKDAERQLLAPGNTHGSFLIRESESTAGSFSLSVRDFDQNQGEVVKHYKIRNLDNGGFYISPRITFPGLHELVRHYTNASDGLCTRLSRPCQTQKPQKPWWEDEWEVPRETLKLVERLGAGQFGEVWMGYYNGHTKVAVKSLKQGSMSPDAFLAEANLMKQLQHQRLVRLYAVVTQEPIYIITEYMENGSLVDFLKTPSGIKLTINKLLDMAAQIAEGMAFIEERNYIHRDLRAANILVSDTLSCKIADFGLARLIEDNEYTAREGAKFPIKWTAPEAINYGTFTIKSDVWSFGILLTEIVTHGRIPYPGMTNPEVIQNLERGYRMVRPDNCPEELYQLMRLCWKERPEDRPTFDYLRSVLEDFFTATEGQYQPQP
As for `O=C(O)c1cc(-c2ccc3ccccc3c2)ccc1O`, the IC50 is above 200 µM. For the molecule `O=C(O)c1cc(-c2ccc3c(O)ccc(O)c3c2)ccc1O`, the IC50 was 65 µM. For `O=C(O)c1cc(-c2ccc3c(O)c(O)ccc3c2)ccc1O` the value was 42 µM; for `O=C(O)c1cc(-c2ccc3cc(O)c(O)cc3c2)ccc1O`, 150 µM.

The values above are taken from ChEMBL document CHEMBL1126844, “Hydroxylated 2-(5'-salicyl)naphthalenes as protein-tyrosine kinase inhibitors” (J Med Chem, 1993).
